Results taken from US11591341B2 (ALIGOS THERAPEUTICS, INC., priority 2019, dated 2023).

These molecules were tested on HBV (assay: HBV-DNA Antiviral Assay Using HepG2.117 Cells (intracellular HBV DNA by qPCR)). Settings: Hepatitis B virus, HepG2.117.
Assay type: cell-based, hepatitis B virus (genotype D)
Summary of the method: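 Endpoint: qPCR copy number of intracellular HBV DNA after 3-day compound exposure, with inhibition set relative to the 2% DMSO control. The cells were doxycycline-free HepG2.117 carrying a Tet-off genotype D genome, dosed at nine 4-fold dilutions. A duplicate plate gave ATP-based viability (CC50).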

Compared with O=C(NCc1ccccc1)c1c2n(c(=O)n1-c1ccc(-c3ncc[nH]3)cc1)CCN(C(=O)c1ccc(Br)c(Cl)c1)C2 [Example 430, N-benzyl-7-(4-bromo-3-chloro-benozyl)-2-[4-(1H-imidazol-2-yl)phenyl]-3-oxo-6,8-dihydro-5H-imidazo[1,5-a]pyrazine-1-carboxamide], CNC(=O)c1ccc(-n2c(C(=O)NCc3ccccc3)c3n(c2=O)CCN(C(=O)c2ccc(Br)c(Cl)c2)C3)cc1 [Example 36, N-benzyl-7-(4-bromo-3-chloro-benzoyl)-2-[4-(methylcarbamoyl)phenyl]-3-oxo-6,8-dihydro-5H-imidazo[1,5-a]pyrazine-1-carboxamide] is higher in EC50: 500 to 5000 nM for the first, > 5000 nM for the second.

COc1ccc(-n2c(C(=O)NCc3ccc(OCC(N)=O)cc3)c3n(c2=O)CCN(C(=O)c2ccc(Br)c(Cl)c2)C3)cc1 [Example 205, N-[[4-(2-amino-2-oxo-ethoxy)phenyl]methyl]-7-(4-bromo-3-chloro-benzoyl)-2-(4-methoxyphenyl)-3-oxo-6,8-dihydro-5H-imidazo[1,5-a]pyrazine-1-carboxamide] and CC(C)Oc1ccc(-n2c(C(=O)NCc3ccc(S(C)(=O)=O)cc3)c3n(c2=O)CCN(C(=O)c2ccc(Br)c(Cl)c2)C3)cc1 [Example 227, 7-(4-bromo-3-chloro-benzoyl)-2-(4-isopropoxypehnyl)-N-[(4-methylsulfonylphenyl)methyl]-3-oxo-6,8-dihydro-5H-imidazo[1,5-a]pyrazine-1-carboxamide] fall in the same range of EC50: 500 to 5000 nM for the first, 500 to 5000 nM for the second.

COc1cccc(CNC(=O)c2c3n(c(=O)n2-c2ccccc2)CCN(C(=O)c2ccc(Br)c(Cl)c2)C3)c1 [Example 33, 7-(4-bromo-3-chloro-benzoyl)-N-[(3-methoxyphenyl)methyl]-3-oxo-2-phenyl-6,8-dihydro-5H-imidazo[1,5-a]pyrazine-1-carboxamide] and O=C(NCc1ccccc1)c1c2n(c(=O)n1-c1ccc(N3CC(F)(F)C3)cc1)CCN(C(=O)c1ccc(Br)c(Cl)c1)C2 [Example 391, N-benzyl-7-(4-bromo-3-chloro-benzoyl)-2-[4-(3,3-difluoroazetidin-1-yl)phenyl]-3-oxo-6,8-dihydro-5H-imidazo[1,5-a]pyrazine-1-carboxamide] fall in the same range of EC50: 100 to 500 nM for the first, 100 to 500 nM for the second.

Compared with COc1ccc(-n2c(C(=O)N[C@@H]3CCc4ccccc43)c3n(c2=O)CCN(C(=O)c2ccc(Br)c(Cl)c2)C3)cc1 (racemic) [Example 75, 7-(4-bromo-3-chloro-benzoyl)-2-(4-methoxyphenyl)-3-oxo-N-[rac-(1R)-indan-1-yl]-6,8-dihydro-5H-imidazo[1,5-a]pyrazine-1-carboxamide], COc1ccc([C@@H](C)NC(=O)c2c3n(c(=O)n2-c2ccc(OC4CC4)cc2)CCN(C(=O)c2ccc(Br)c(Cl)c2)C3)cc1 [Example 453, 7-(4-bromo-3-chloro-benzoyl)-2-[4-(cyclopropoxy)phenyl]-N-[(1R)-1-(4-methoxyphenyl)ethyl]-3-oxo-6,8-dihydro-5H-imidazo[1,5-a]pyrazine-1-carboxamide] is lower in EC50: 500 to 5000 nM for the first, 100 to 500 nM for the second.

COc1ccc(-n2c(C(=O)NCC3CC3)c3n(c2=O)CCN(C(=O)c2ccc(Cl)c(Cl)c2)C3)cc1 [Example 105, N-(cyclopropylmethyl)-7-(3,4-dichlorobenzoyl)-2-(4-methoxyphenyl)-3-oxo-6,8-dihydro-5H-imidazo[1,5-a]pyrazine-1-carboxamide] and COc1ccc(-n2c(C(=O)NCC(C)C)c3n(c2=O)CCN(C(=O)c2ccc(Cl)c(Cl)c2)C3)cc1 [Example 58, 7-(3,4-dichlorobenzoyl)-N-isobutyl-2-(4-methoxyphenyl)-3-oxo-6,8-dihydro-5H-imidazo[1,5-a]pyrazine-1-carboxamide] cannot be ordered by EC50: > 5000 nM for the first, > 5000 nM for the second.

First: COc1ccc(CN2C[C@@H](O)Cn3c(c4n(c3=O)CCN(C(=O)c3ccc(Br)c(Cl)c3)C4)C2=O)cc1 (stereo in doubt) [Example 193, rac-(11R)-4-(4-bromo-3-chloro-benzoyl)-11-hydroxy-13-[(4-methoxyphenyl)methyl]-4,7,9,13-tetrazatricyclo[7.5.0.0^2,7]tetradec-1-ene-8,14-dione]
Second: COc1ccc(-n2c(-c3ccccn3)c3n(c2=O)CCN(C(=O)c2ccc(Br)c(Cl)c2)C3)cc1 [Example 275, 7-(4-bromo-3-chloro-benzoyl)-2-(4-methoxyphenyl)-1-(2-pyridyl)-6,8-dihydro-5H-imidazo[1,5-a]pyrazin-3-one]
The EC50 of the first is lower: 100 to 500 nM for the first, > 5000 nM for the second.

First: O=C(NCc1ccccc1)c1c2n(c(=O)n1-c1ccc(N3CCO[C@H](C(F)(F)F)C3)cc1)CCN(C(=O)c1ccc(Br)c(Cl)c1)C2 (racemic) [Example 417, N-benzyl-7-(4-bromo-3-chloro-benozyl)-3-oxo-2-[4-[rac-(2S)-2-(trifluoromethyl)morpholin-4-yl]phenyl]-6,8-dihydro-5H-imidazo[1,5-a]pyrazine-1-carboxamide]
Second: O=C(NCc1ccccc1-n1cc(F)cn1)c1c2n(c(=O)n1-c1ccc(OC3CC3)cc1)CCN(C(=O)c1ccc(Br)c(Cl)c1)C2 [Example 421, 7-(4-bromo-3-chloro-benzoyl)-2-[4-(cyclopropoxy)phenyl]-N-[[2-(4-fluoropyrazol-1-yl)phenyl]methyl]-3-oxo-6,8-dihydro-5H-imidazo[1,5-a]pyrazine-1-carboxamide]
The EC50 of the first is higher: 100 to 500 nM for the first, < 100 nM for the second.

First: COc1ccc(-n2c(C(=O)NCc3ccccc3-n3cccn3)c3n(c2=O)CCN(C(=O)c2ccc(Br)c(Cl)c2)C3)cc1 [Example 167, 7-(4-bromo-3-chloro-benzoyl)-2-(4-methoxyphenyl)-3-oxo-N-[(2-pyrazol-1-ylphenyl)methyl]-6,8-dihydro-5H-imidazo[1,5-a]pyrazine-1-carboxamide]
Second: CC(C)Oc1ccc(-n2c(C(=O)N[C@@H](C)c3ccccc3)c3n(c2=O)CCN(C(=O)c2ccc(Cl)c(Cl)c2)C3)cc1 (stereo in doubt) [Example 129, 7-(3,4-dichlorobenzoyl)-2-(4-isopropoxyphenyl)-3-oxo-N-[rac-(1S)-1-phenylethyl]-6,8-dihydro-5H-imidazo[1,5-a]pyrazine-1-carboxamide]
The EC50 of the first is lower: < 100 nM for the first, 500 to 5000 nM for the second.

C[C@@H]1Cn2c(c(C(=O)N[C@H](C)c3ccccc3)n(-c3ccc(OC4CC4)cc3)c2=O)CN1C(=O)c1ccc(Br)c(Cl)c1 (mixture of isomers) [Example 331, (6RS)-7-(4-bromo-3-chloro-benzoyl)-2-[4-(cyclopropoxy)phenyl]-6-methyl-3-oxo-N-[(1S)-1-phenylethyl]-6,8-dihydro-5H-imidazo[1,5-a]pyrazine-1-carboxamide] and COc1ccc([C@@H](C)NC(=O)c2c3n(c(=O)n2-c2ccc(OC4CC4)cc2)CC(C)N(C(=O)c2ccc(Br)c(Cl)c2)C3)cc1 (mixture of isomers) [Example 449, (6RS)-7-(4-bromo-3-chloro-benzoyl)-2-[4-(cyclopropoxy)phenyl]-N-[(1R)-1-(4-methoxyphenyl)ethyl]-6-methyl-3-oxo-6,8-dihydro-5H-imidazo[1,5-a]pyrazine-1-carboxamide] fall in the same range of EC50: 500 to 5000 nM for the first, 500 to 5000 nM for the second.

In the case of C[C@@H](NC(=O)c1c2n(c(=O)n1-c1ccc(OCC(F)(F)F)cc1)CCN(C(=O)c1ccc(Br)c(Cl)c1)C2)c1ccc(OCC#N)cc1F (stereo in doubt) [Example 344, 7-(4-bromo-3-chloro-benzoyl)-3-oxo-N-[rac-(1R)-1-[4-(cyanomethoxy)-2-fluoro-phenyl]ethyl]-2-[4-(2,2,2-trifluoroethoxy)phenyl]-6,8-dihydro-5H-imidazo[1,5-a]pyrazine-1-carboxamide], the EC50 is reported as 500 to 5000 nM.
